Measured values from patent publication US20230002359A1, “PESTICIDALLY ACTIVE FUSED BICYCLIC HETEROAROMATIC COMPOUNDS” (priority 2019, published 2023).

How the values were obtained:
Assay type in all cases: in vivo
[1] = test system: Spodoptera littoralis (Egyptian Cotton Leaf Worm); assay: Example B7: Spodoptera littoralis (Egyptian cotton leaf worm), cotton leaf discs sprayed, L1 larvae; details: foliar, 72 h, application rate of 200 ppm, 3 days after infestation, L1 larvae, read-out: control in at least one of the three categories (mortality, anti-feedant effect, or growth inhibition)
Method: Cotton leaf discs were placed onto agar in 24-well microtiter plates and sprayed with aqueous test solutions prepared from 10′000 ppm DMSO stock solutions. After drying the leaf discs were infested with five L1 larvae. The samples were assessed for mortality, anti-feeding effect, and growth inhibition in comparison to untreated samples 3 days after infestation. Control of Spodoptera littoralis by a test sample is given when at least one of the categories mortality, anti-feedant effect, and growth inhibition is higher than the untreated sample.

[2] = test system: Diabrotica Balteata (Corn Root Worm); assay: Example B1: Diabrotica balteata (corn root worm), maize sprouts sprayed, L2 larvae; details: 96 h, application rate of 200 ppm, 4 days after infestation, L2 larvae, read-out: control in at least one of the two categories (mortality or growth inhibition)
Method: Maize sprouts placed onto an agar layer in 24-well microtiter plates were treated with aqueous test solutions prepared from 10′000 ppm DMSO stock solutions by spraying. After drying, the plates were infested with L2 larvae (6 to 10 per well). The samples were assessed for mortality and growth inhibition in comparison to untreated samples 4 days after infestation.

[3] = test system: Plutella xylostella (Diamond Back Moth); assay: Example B4: Plutella xylostella (diamond back moth), artificial diet, eggs, 24-well; details: 192 h, application rate of 200 ppm, 8 days after infestation, eggs, read-out: control in at least one of the two categories (mortality or growth inhibition)
Method: 24-well microtiter plates with artificial diet were treated with aqueous test solutions prepared from 10′000 ppm DMSO stock solutions by pipetting. After drying, Plutella eggs were pipetted through a plastic stencil onto a gel blotting paper and the plate was closed with it. The samples were assessed for mortality and growth inhibition in comparison to untreated samples 8 days after infestation.

[4] = test system: Chilo suppressalis (Striped Rice Stemborer); assay: Example B3: Chilo suppressalis (striped rice stemborer), artificial diet, L2 larvae; details: 144 h, application rate of 200 ppm, 6 days after infestation, L2 larvae, read-out: control in at least one of the three categories (mortality, anti-feedant effect, or growth inhibition)
Method: 24-well microtiter plates with artificial diet were treated with aqueous test solutions prepared from 10′000 ppm DMSO stock solutions by pipetting. After drying, the plates were infested with L2 larvae (6-8 per well). The samples were assessed for mortality, anti-feeding effect, and growth inhibition in comparison to untreated samples 6 days after infestation. Control of Chilo suppressalis by a test sample is given when at least one of the categories mortality, anti-feedant effect, and growth inhibition is higher than the untreated sample.

CC(c1ncnn1-c1ccc(Br)cn1)N(C)c1ncnc2c(Br)cc(C(F)(F)F)cc12 (centres unmarked) [P.239, 8-bromo-N-[1-[2-(5-bromo-2-pyridyl)-1,2,4-triazol-3-yl]ethyl]-N-methyl-6-(trifluoromethyl)quinazolin-4-amine]
≥ 80%: percent control (mortality, anti-feedant effect or growth inhibition) at 200 ppm [1] | percent control (mortality or growth inhibition) at 200 ppm [2] | percent control (mortality or growth inhibition) at 200 ppm [3] | percent control (mortality, anti-feedant effect or growth inhibition) at 200 ppm [4]

CC(Nc1ncnc2c(Cl)cc(C(F)(F)F)cc12)c1ncnn1-c1ccc(F)cn1 (centres unmarked) [P.274, 8-chloro-N-[1-[2-(5-fluroo-2-pyridyl)-1,2,4-triazol-3-yl]ethyl]-6-(trifluoromethyl)quinazolin-4-amine]
≥ 80%: percent control (mortality, anti-feedant effect or growth inhibition) at 200 ppm [1] | percent control (mortality or growth inhibition) at 200 ppm [2] | percent control (mortality or growth inhibition) at 200 ppm [3] | percent control (mortality, anti-feedant effect or growth inhibition) at 200 ppm [4]

CC(Nc1ncnc2c(Cl)cc(C(F)(F)F)cc12)c1nccnc1-c1ccc(OC(F)F)cn1 (centres unmarked) [P.113, 8-chloro-N-[1-[3-[5-(difluoromethoxy)-2-pyridyl]pyrazin-2-yl]ethyl]-6-(trifluoromethyl)quinazolin-4-amine]
≥ 80%: percent control (mortality, anti-feedant effect or growth inhibition) at 200 ppm [1] | percent control (mortality or growth inhibition) at 200 ppm [2] | percent control (mortality or growth inhibition) at 200 ppm [3] | percent control (mortality, anti-feedant effect or growth inhibition) at 200 ppm [4]

CC(Nc1ncnc2c(C(F)(F)F)cc(Br)cc12)c1nccnc1-n1nccn1 (centres unmarked) [P.33, 6-bromo-N-[1-[3-(triazol-2-yl)pyrazin-2-yl]ethyl]-8-(trifluoromethyl)quinazolin-4-amine]
≥ 80%: percent control (mortality, anti-feedant effect or growth inhibition) at 200 ppm [1] | percent control (mortality or growth inhibition) at 200 ppm [2] | percent control (mortality or growth inhibition) at 200 ppm [3] | percent control (mortality, anti-feedant effect or growth inhibition) at 200 ppm [4]

CC(c1nccnc1-n1nccn1)N(C)c1ncnc2c(Cl)cc(C(F)(F)F)cc12 (centres unmarked) [P.102, 8-chloro-N-methyl-N-[1-[3-(triazol-2-yl)pyrazin-2-yl]ethyl]-6-(trifluoromethyl)quinazolin-4-amine]
≥ 80%: percent control (mortality, anti-feedant effect or growth inhibition) at 200 ppm [1] | percent control (mortality or growth inhibition) at 200 ppm [2] | percent control (mortality or growth inhibition) at 200 ppm [3] | percent control (mortality, anti-feedant effect or growth inhibition) at 200 ppm [4]

C[C@@H](c1ncnn1-c1ccc(C#N)cn1)N(C)c1ccnc2c(C(F)(F)F)cc(C(F)(F)F)cc12 [P.214, 6-[5-[(1S)-1-[[6,8-bis(trifluoromethyl)-4-quinolyl]-methyl-amino]ethyl]-1,2,4-triazol-1-yl]pyridine-3-carbonitrile]
≥ 80%: percent control (mortality, anti-feedant effect or growth inhibition) at 200 ppm [1] | percent control (mortality or growth inhibition) at 200 ppm [2] | percent control (mortality or growth inhibition) at 200 ppm [3] | percent control (mortality, anti-feedant effect or growth inhibition) at 200 ppm [4]

CC(c1nccnc1-c1ccc(C#N)cn1)N(C)c1ncnc2c(Br)cc(C(F)(F)F)cc12 (centres unmarked) [P.124, 6-[3-[1-[[8-bromo-6-(trifluoromethyl)quinazolin-4-yl]-methyl-amino]ethyl]pyrazin-2-yl]pyridine-3-carbonitrile]
≥ 80%: percent control (mortality, anti-feedant effect or growth inhibition) at 200 ppm [1] | percent control (mortality or growth inhibition) at 200 ppm [2] | percent control (mortality or growth inhibition) at 200 ppm [3] | percent control (mortality, anti-feedant effect or growth inhibition) at 200 ppm [4]

CC(c1nccnc1-n1nccn1)N(C)c1ncnc2c(C(F)(F)F)cc(Br)cc12 (centres unmarked) [P.105, 6-bromo-N-methyl-N-[1-[3-(triazol-2-yl)pyrazin-2-yl]ethyl]-8-(trifluoromethyl)quinazolin-4-amine]
≥ 80%: percent control (mortality, anti-feedant effect or growth inhibition) at 200 ppm [1] | percent control (mortality or growth inhibition) at 200 ppm [2] | percent control (mortality or growth inhibition) at 200 ppm [3] | percent control (mortality, anti-feedant effect or growth inhibition) at 200 ppm [4]

CC(Nc1ncnc2c(C(F)(F)F)cc(Cl)cc12)c1nccnc1-c1ccc(C#N)cn1 (centres unmarked) [P.118, 6-[3-[1-[[6-chloro-8-(trifluoromethyl)quinazolin-4-yl]amino]ethyl]pyrazin-2-yl]pyridine-3-carbonitrile]
≥ 80%: percent control (mortality, anti-feedant effect or growth inhibition) at 200 ppm [1] | percent control (mortality or growth inhibition) at 200 ppm [2] | percent control (mortality or growth inhibition) at 200 ppm [3] | percent control (mortality, anti-feedant effect or growth inhibition) at 200 ppm [4]

CC(c1nccnc1-c1ncccn1)N(C)c1ncnc2c(Br)cc(C(F)(F)F)cc12 (centres unmarked) [P.97, 8-bromo-N-methyl-N-[1-(3-pyrimidin-2-ylpyrazin-2-yl)ethyl]-6-(trifluoromethyl)quinazolin-4-amine]
≥ 80%: percent control (mortality, anti-feedant effect or growth inhibition) at 200 ppm [1] | percent control (mortality or growth inhibition) at 200 ppm [2] | percent control (mortality or growth inhibition) at 200 ppm [3] | percent control (mortality, anti-feedant effect or growth inhibition) at 200 ppm [4]

CC(Nc1ncnc2c(OC(F)(F)F)cc(Br)cc12)c1ncnn1-c1ccc(C#N)cn1 (centres unmarked) [P.247, 6-[5-[1-[[6-bromo-8-(trifluoromethoxy)quinazo-lin-4-yl]amino]ethyl]-1,2,4-triazol-1-yl]pyridine-3-carbonitrile]
≥ 80%: percent control (mortality, anti-feedant effect or growth inhibition) at 200 ppm [1] | percent control (mortality or growth inhibition) at 200 ppm [2] | percent control (mortality or growth inhibition) at 200 ppm [3] | percent control (mortality, anti-feedant effect or growth inhibition) at 200 ppm [4]

CC(Nc1ncnc2c(Br)cc(C(F)(F)F)cc12)c1nccnc1-n1nccn1 (centres unmarked) [P.34, 8-bromo-N-[1-[3-(triazol-2-yl)pyrazin-2-yl]ethyl]-6-(trifluoromethyl)quinazolin-4-amine]
≥ 80%: percent control (mortality, anti-feedant effect or growth inhibition) at 200 ppm [1] | percent control (mortality or growth inhibition) at 200 ppm [2] | percent control (mortality or growth inhibition) at 200 ppm [3] | percent control (mortality, anti-feedant effect or growth inhibition) at 200 ppm [4]

CC(Nc1ncnc2c(C(F)(F)F)cc(Br)cc12)c1nccnc1-c1ccc(C#N)cn1 (centres unmarked) [P.119, 6-[3-[1-[[6-bromo-8-(trifluoromethyl)quinazolin-4-yl]amino]ethyl]pyrazin-2-yl]pyridine-3-carbonitrile]
≥ 80%: percent control (mortality, anti-feedant effect or growth inhibition) at 200 ppm [1] | percent control (mortality or growth inhibition) at 200 ppm [2] | percent control (mortality or growth inhibition) at 200 ppm [3] | percent control (mortality, anti-feedant effect or growth inhibition) at 200 ppm [4]

CC(Nc1ncnc2c(Cl)cc(C(F)(F)F)cc12)c1nccnc1-c1ncccn1 (centres unmarked) [P.101, 8-chloro-N-[1-(3-pyrimidin-2-ylpyrazin-2-yl)ethyl]-6-(trifluoromethyl)quinazolin-4-amine]
≥ 80%: percent control (mortality, anti-feedant effect or growth inhibition) at 200 ppm [1] | percent control (mortality or growth inhibition) at 200 ppm [2] | percent control (mortality or growth inhibition) at 200 ppm [3] | percent control (mortality, anti-feedant effect or growth inhibition) at 200 ppm [4]

C[C@H](Nc1ncnc2c(I)cc(C(F)(F)F)cc12)c1nccnc1-c1ccc(C#N)cn1 [P.161, 6-[3-[(1S)-1-[[8-iodo-6-(trifluoromethyl)quinazolin-4-yl]amino]ethyl]pyrazin-2-yl]pyridine-3-carbonitrile]
≥ 80%: percent control (mortality, anti-feedant effect or growth inhibition) at 200 ppm [1] | percent control (mortality or growth inhibition) at 200 ppm [2] | percent control (mortality or growth inhibition) at 200 ppm [3] | percent control (mortality, anti-feedant effect or growth inhibition) at 200 ppm [4]

CC(Nc1ncnc2c(C(F)(F)F)cc(C(F)(F)F)cc12)c1nccnc1-n1nccn1 (centres unmarked) [P.56, N-[1-[3-(triazol-2-yl)pyrazin-2-yl]ethyl]-6,8-bis(trifluoromethyl)quina-zolin-4-amine]
≥ 80%: percent control (mortality, anti-feedant effect or growth inhibition) at 200 ppm [1] | percent control (mortality or growth inhibition) at 200 ppm [2] | percent control (mortality or growth inhibition) at 200 ppm [3] | percent control (mortality, anti-feedant effect or growth inhibition) at 200 ppm [4]

CC(Nc1ncnc2c(Br)cc(Cl)cc12)c1nccnc1-n1nccn1 (centres unmarked) [P.173, 8-bromo-6-chloro-N-[1-[3-(triazol-2-yl)pyrazin-2-yl]ethyl]quinazolin-4-amine]
≥ 80%: percent control (mortality, anti-feedant effect or growth inhibition) at 200 ppm [1] | percent control (mortality or growth inhibition) at 200 ppm [2] | percent control (mortality or growth inhibition) at 200 ppm [3] | percent control (mortality, anti-feedant effect or growth inhibition) at 200 ppm [4]
